Measured values published in ChEMBL document CHEMBL4732061, “Synthesis, binding, and functional properties of tetrahydroisoquinolino-2-alkyl phenones as selective σR/TMEM97 ligands” (Eur J Med Chem, 2021).
Each block holds one compound with its values, some of them ahead of it. Activity calls are given as the source filed them. The calls are words filed in the database; no cut-off is given here.

Columns and labels:
[1] = target: Sigma non-opioid intracellular receptor 1 (Cavia porcellus, UniProt Q60492); experiment: Displacement of [3H](+)-pentazocine from sigma 1 receptor in guinea pig brain membranes after 120 mins by microbeta scintillation counting method; format: cell membranes, Membrane
Chain of Sigma non-opioid intracellular receptor 1 (Q60492 whole entry): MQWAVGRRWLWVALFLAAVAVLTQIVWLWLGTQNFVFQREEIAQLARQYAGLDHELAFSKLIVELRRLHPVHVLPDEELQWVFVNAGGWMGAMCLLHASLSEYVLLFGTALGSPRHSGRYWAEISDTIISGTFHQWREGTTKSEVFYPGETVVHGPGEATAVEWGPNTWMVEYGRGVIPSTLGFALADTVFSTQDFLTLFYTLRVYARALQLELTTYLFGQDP

[2] = Selectivity ratio of Ki for displacement of [3H](+)-pentazocine from sigma 1 receptor in guinea pig brain membranes to Ki for displacement of [125I]-RHM-4 from sigma2 receptor in rat liver membranes; format: cell membranes
[3] = target: T1, Sigma intracellular receptor 2 (Rattus norvegicus, UniProt Q5U3Y7); experiment: Displacement of [125I]-RHM-4 from sigma 2 receptor in rat liver membranes after 120 mins by microbeta scintillation counting method; format: cell membranes, Membrane
T1 sequence (Q5U3Y7 whole entry): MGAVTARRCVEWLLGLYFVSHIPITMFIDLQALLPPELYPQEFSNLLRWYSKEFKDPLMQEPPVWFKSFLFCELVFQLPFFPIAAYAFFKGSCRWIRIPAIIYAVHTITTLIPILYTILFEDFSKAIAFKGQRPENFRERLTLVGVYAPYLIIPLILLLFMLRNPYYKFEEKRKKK

[4] = target: Sigma intracellular receptor 2 (Homo sapiens) (UniProt Q5BJF2); experiment: Agonist activity at sigma 2 receptor in human MCF7 cells assessed as stimulation of intracellular calcium release at 10 uM incubated for 3 hrs by Fluo-3 AM dye based confocal laser scanning microscopy; format: cell-based; details: filed as agonist
Chain of Sigma intracellular receptor 2 (Homo sapiens) (Q5BJF2 whole entry): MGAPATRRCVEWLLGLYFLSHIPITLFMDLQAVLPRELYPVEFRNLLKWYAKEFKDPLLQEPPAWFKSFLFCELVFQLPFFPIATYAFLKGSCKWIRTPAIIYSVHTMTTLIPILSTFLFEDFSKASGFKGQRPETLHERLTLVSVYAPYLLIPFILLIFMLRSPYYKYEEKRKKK

MCF7 [5] = experiment: Cytotoxicity against human MCF7 cells assessed as reduction in cell viability incubated for 24 hrs by CCK-8 assay; format: functional, cell-based
MCF-10A [6] = experiment: Cytotoxicity against human MCF-10A cells assessed as reduction in cell viability incubated for 48 hrs by CCK-8 assay; format: cell-based
MCF7 [7] = experiment: Cytotoxicity against human MCF7 cells assessed as reduction in cell viability incubated for 48 hrs by CCK-8 assay; format: functional, cell-based; details: MCF7, 48 h
MCF-10A [8] = experiment: Cytotoxicity against human MCF-10A cells assessed as reduction in cell viability incubated for 24 hrs by CCK-8 assay; format: cell-based
MCF7 [9] = experiment: Cytotoxicity against human MCF7 cells assessed as reduction in cell viability incubated for 24 to 48 hrs by CCK-8 assay; format: functional, cell-based
MCF-10A [10] = experiment: Cytotoxicity against human MCF-10A cells assessed as reduction in cell viability at 1 to 100 uM incubated for 24 to 48 hrs by CCK-8 assay; format: cell-based; details: dose lower 1 µM, time lower 24 hrs, dose upper 100 µM, time upper 48 hrs
[11] = target: Sigma intracellular receptor 2 (Homo sapiens) (UniProt Q5BJF2); experiment: Antagonist activity at sigma 2 receptor in human MCF7 cells assessed as reduction in intracellular calcium release at 30 uM incubated for 3 hrs by Fluo-3 AM dye based confocal laser scanning microscopy; format: cell-based; details: filed as antagonist
MCF-10A [12] = experiment: Cytotoxicity against human MCF-10A cells assessed as reduction in cell viability incubated for 24 to 48 hrs by CCK-8 assay; format: cell-based
MCF7 [13] = experiment: Cytotoxicity against human MCF7 cells assessed as reduction in cell viability at 1 to 100 uM incubated for 24 to 48 hrs by CCK-8 assay; format: functional, cell-based; details: dose 1-100 µM, time 24-48 hrs
MDA-MB-231 = experiment: Cytotoxicity against human MDA-MB-231 cells assessed as reduction in cell viability incubated for 24 to 48 hrs in presence of cisplatin by CCK-8 assay; format: functional, cell-based; details: time 24-48 hrs
MCF7 [14] = experiment: Cytotoxicity against human MCF7 cells assessed as reduction in cell viability incubated for 24 to 48 hrs in presence of cisplatin by CCK-8 assay; format: functional, cell-based; details: time 24-48 hrs
KYSE-140 = experiment: Cytotoxicity against human KYSE-140 cells assessed as reduction in cell viability incubated for 24 to 48 hrs in presence of cisplatin by CCK-8 assay; format: functional, cell-based; details: time 24-48 hrs
HepG2 = experiment: Cytotoxicity against human HepG2 cells assessed as reduction in cell viability incubated for 24 to 48 hrs in presence of cisplatin by CCK-8 assay; format: functional, cell-based; details: time 24-48 hrs
[15] = Homo sapiens, MCF7, 24 h, read-out: IC50
[16] = Homo sapiens, MCF-10A, 24 h, read-out: IC50

SMILES: Fc1ccc(-n2cc(CCCCN3CCC4(CC3)OCc3ccccc34)c3ccccc32)cc1
Activity [4]: Active

SMILES: COc1cc2c(c(OC)c1OC)CCN(CCCCCC(=O)c1c(C)c(OC)c(OC)c(OC)c1OC)C2
Ki [1]: > 1 µM
Ratio Ki [2]: > 50
Ki [3]: 0.0197 µM

SMILES: COc1cc2c(c(OC)c1OC)CN(CCCCCCC(=O)c1c(C)c(OC)c(OC)c(OC)c1OC)CC2
IC50 (MCF7 [5]; mcf7): Not Active
Ki [1]: > 1 µM
IC50 (MCF-10A [6]): 23.5 µM
IC50 (MCF7 [7]): 39.7 µM
Ki [3]: > 1 µM
IC50 (MCF-10A [8]; mcf-10a): Not Active

SMILES: COc1cc2c(c(OC)c1OC)CCN(CCCCCCC(=O)c1c(C)c(OC)c(OC)c(OC)c1OC)C2
Ki [1]: > 1 µM
Ratio Ki [2]: > 24
Ki [3]: 0.04 µM

SMILES: COc1cc2c(cc1OC)CN(CCCC(=O)c1c(C)c(OC)c(OC)c(OC)c1OC)CC2
IC50 (MCF7 [9]): > 100 µM
Activity (MCF-10A [10]): Non-Toxic
Ki [1]: > 1 µM
Activity [11]: Active
IC50 (MCF-10A [12]): > 100 µM
Ki [3]: 0.0051 µM
Activity (MCF7 [13]): inactive

SMILES: COc1cc2c(cc1OC)CN(CCCCC(=O)c1c(C)c(OC)c(OC)c(OC)c1OC)CC2
IC50 (MCF7 [9]): > 100 µM
Activity (MCF-10A [10]): Non-Toxic
Ki [1]: 0.16 µM
Activity [11]: Active
IC50 (MCF-10A [12]): > 100 µM
Ki [3]: 0.003 µM
Activity (MCF7 [13]): inactive

SMILES: COc1cc2c(c(OC)c1OC)CCN(CCCC(=O)c1c(C)c(OC)c(OC)c(OC)c1OC)C2
Ki [1]: > 1 µM
Ratio Ki [2]: > 24
Ki [3]: 0.0418 µM

SMILES: COc1cc2c(cc1OC)CN(CCCCCC(=O)c1c(C)c(OC)c(OC)c(OC)c1OC)CC2
IC50 (MCF7 [9]): > 100 µM
Activity (MCF-10A [10]): Non-Toxic
Ki [1]: > 1 µM
Activity [11]: Active
IC50 (MCF-10A [12]): > 100 µM
Ki [3]: 0.00038 µM
Activity (MCF7 [13]): inactive

SMILES: COc1cc2c(cc1OC)CN(CCCCCCC(=O)c1c(C)c(OC)c(OC)c(OC)c1OC)CC2
IC50 (MCF7 [5]; [15]): 70.7 µM
Ki [1]: > 1 µM
Activity [11]: Active
IC50 (MCF-10A [6]): 32.3 µM
IC50 (MCF7 [7]): 51.1 µM
Ki [3]: 0.00133 µM
IC50 (MCF-10A [8]; [16]): 54.2 µM

SMILES: COc1cc2c(c(OC)c1OC)CCN(CCCCC(=O)c1c(C)c(OC)c(OC)c(OC)c1OC)C2
Ki [1]: > 1 µM
Ratio Ki [2]: > 29
Ki [3]: 0.0342 µM

SMILES: COc1cc2c(cc1OC)CN(CCC(=O)c1c(C)c(OC)c(OC)c(OC)c1OC)CC2
Activity (MDA-MB-231): Active
IC50 (MCF7 [5]; [15]): 11.5 µM
Ki [1]: 3.19 µM
IC50 (MCF-10A [6]): 9.77 µM
IC50 (MCF7 [7]): 8.09 µM
Activity (MCF7 [14]): Active
Activity (KYSE-140): Active
Ki [3]: 0.956 µM
IC50 (MCF-10A [8]; [16]): 11.9 µM
Activity (HepG2): Active

SMILES: COc1cc2c(cc1OC)CN(CCCCNC(=O)c1cc(C)ccc1OC)CC2
Activity [11]: Active

Further lines, with some results ahead:

Ki [1]: > 1 µM
Ratio Ki [2]: > 79
Ki [3]: 0.0126 µM
SMILES: COc1cc2c(c(OC)c1OC)CN(CCCCCC(=O)c1c(C)c(OC)c(OC)c(OC)c1OC)CC2

Ki [1]: > 1 µM
Ki [3]: 3.18 µM
SMILES: COc1cc2c(c(OC)c1OC)CN(CCC(=O)c1c(C)c(OC)c(OC)c(OC)c1OC)CC2
IC50 (MCF7 [5]; [15]): 25.5 µM
IC50 (MCF-10A [6]): 27.4 µM
IC50 (MCF7 [7]): 19.7 µM
IC50 (MCF-10A [8]; [16]): 45.9 µM

Ki [1]: > 1 µM
Ki [3]: > 1 µM
SMILES: COc1cc2c(c(OC)c1OC)CN(CCCC(=O)c1c(C)c(OC)c(OC)c(OC)c1OC)CC2

Ki [1]: > 1 µM
Ratio Ki [2]: > 44
Ki [3]: 0.0224 µM
SMILES: COc1cc2c(c(OC)c1OC)CN(CCCCC(=O)c1c(C)c(OC)c(OC)c(OC)c1OC)CC2

Ki [1]: > 1 µM
Ki [3]: 11.5 µM
SMILES: COc1cc2c(c(OC)c1OC)CCN(CCC(=O)c1c(C)c(OC)c(OC)c(OC)c1OC)C2
